Assay in all cases: biochemical
Holding throughout (type): biochemical

In experiment [1] the target is T1, 363 human kinases (including Aurora A/B/C) (Homo sapiens, UniProt O94806).
T1 sequence (O94806 1-890): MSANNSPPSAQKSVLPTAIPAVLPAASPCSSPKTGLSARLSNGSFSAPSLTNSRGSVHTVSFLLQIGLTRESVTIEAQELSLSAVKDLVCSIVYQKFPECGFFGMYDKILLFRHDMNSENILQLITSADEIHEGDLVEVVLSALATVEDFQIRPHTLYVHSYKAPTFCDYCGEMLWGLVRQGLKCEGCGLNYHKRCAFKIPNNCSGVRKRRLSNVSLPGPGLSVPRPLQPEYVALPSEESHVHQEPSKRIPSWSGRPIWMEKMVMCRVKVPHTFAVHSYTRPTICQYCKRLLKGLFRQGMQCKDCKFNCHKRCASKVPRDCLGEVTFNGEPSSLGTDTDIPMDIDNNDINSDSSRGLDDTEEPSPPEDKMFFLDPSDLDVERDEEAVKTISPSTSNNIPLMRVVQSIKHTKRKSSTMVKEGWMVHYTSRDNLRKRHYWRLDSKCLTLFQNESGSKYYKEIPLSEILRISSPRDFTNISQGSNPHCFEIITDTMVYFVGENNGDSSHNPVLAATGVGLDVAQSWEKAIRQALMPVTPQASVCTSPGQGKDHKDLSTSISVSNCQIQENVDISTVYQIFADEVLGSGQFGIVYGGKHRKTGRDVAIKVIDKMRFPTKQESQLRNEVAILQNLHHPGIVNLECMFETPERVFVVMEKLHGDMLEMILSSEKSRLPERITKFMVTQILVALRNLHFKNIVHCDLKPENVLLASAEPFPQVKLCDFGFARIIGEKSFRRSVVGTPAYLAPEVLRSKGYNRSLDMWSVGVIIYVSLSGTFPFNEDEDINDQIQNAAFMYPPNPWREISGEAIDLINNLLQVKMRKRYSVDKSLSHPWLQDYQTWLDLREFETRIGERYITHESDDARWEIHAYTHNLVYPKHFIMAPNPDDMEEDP
The following applies: PKCnu/PRKD3; for remaining activity at 0.5 µM / remaining activity at 0.1 µM: read-out: % Enzyme Activity (relative to DMSO controls); for remaining activity at 0.1 µM: 100 nM.
From the text: (§1) However, the Aurora A/B selectivity ratios derived from our in vitro and in vivo data can be compared to prioritize inhibitors.

Experiment [2] concerns the target 363 human kinases (including Aurora A/B/C) (Homo sapiens, UniProt P09619). The following applies: PDGFRb; for remaining activity at 0.5 µM / remaining activity at 0.1 µM: read-out: % Enzyme Activity (relative to DMSO controls); for remaining activity at 0.1 µM: 100 nM.
From the text: as §1
Experiment [3] addresses 363 human kinases (including Aurora A/B/C) (Homo sapiens, UniProt P22607). To be noted: FGFR3, [ATP] 30 µM; for remaining activity at 0.5 µM / remaining activity at 0.1 µM: read-out: % Enzyme Activity (relative to DMSO controls); for remaining activity at 0.1 µM: 100 nM.
From the text: as §1
Experiment [4] concerns the target 363 human kinases (including Aurora A/B/C) (Homo sapiens, UniProt P37023). The following applies: ALK1/ACVRL1, [ATP] 100 µM; for remaining activity at 0.5 µM / remaining activity at 0.1 µM: read-out: % Enzyme Activity (relative to DMSO controls); for remaining activity at 0.1 µM: 100 nM.
From the text: as §1
The target in experiment [5] is 363 human kinases (including Aurora A/B/C) (Homo sapiens, UniProt P68400). The following applies: CK2a, [ATP] 20 µM, read-out: % Enzyme Activity (relative to DMSO controls); for remaining activity at 0.5 µM: 500 nM; for remaining activity at 0.1 µM: 100 nM.
From the text: as §1
Experiment [6] concerns the target 363 human kinases (including Aurora A/B/C) (Homo sapiens, UniProt Q07002). The following applies: CDK18/cyclin Y (PCTK3), [ATP] 50 µM; for remaining activity at 0.5 µM / remaining activity at 0.1 µM: read-out: % Enzyme Activity (relative to DMSO controls); for remaining activity at 0.1 µM: 100 nM.
From the text: as §1
Experiment [7] has as its target T2, 363 human kinases (including Aurora A/B/C) (Homo sapiens, UniProt Q96BR1).
T2 sequence (Q96BR1 1-496): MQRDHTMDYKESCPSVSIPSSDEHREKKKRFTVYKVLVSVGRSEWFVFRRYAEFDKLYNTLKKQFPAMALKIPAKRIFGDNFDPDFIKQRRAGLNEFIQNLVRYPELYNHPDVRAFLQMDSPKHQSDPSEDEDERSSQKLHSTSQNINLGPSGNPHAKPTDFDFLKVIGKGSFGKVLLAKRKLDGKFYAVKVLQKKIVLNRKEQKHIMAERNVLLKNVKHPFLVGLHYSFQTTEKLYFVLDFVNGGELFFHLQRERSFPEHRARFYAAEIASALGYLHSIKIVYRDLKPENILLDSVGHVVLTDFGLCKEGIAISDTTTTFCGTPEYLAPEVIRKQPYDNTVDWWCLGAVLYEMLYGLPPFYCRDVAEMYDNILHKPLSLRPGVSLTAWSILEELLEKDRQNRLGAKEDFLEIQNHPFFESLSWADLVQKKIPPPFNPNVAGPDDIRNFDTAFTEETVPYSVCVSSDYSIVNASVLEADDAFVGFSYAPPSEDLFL
To be noted: SGK3/SGKL; for remaining activity at 0.5 µM / remaining activity at 0.1 µM: read-out: % Enzyme Activity (relative to DMSO controls); for remaining activity at 0.1 µM: 100 nM.
From the text: as §1

In experiment [8] the target is T3, 363 human kinases (including Aurora A/B/C) (Homo sapiens, UniProt Q99759).
T3 sequence (Q99759 1-626): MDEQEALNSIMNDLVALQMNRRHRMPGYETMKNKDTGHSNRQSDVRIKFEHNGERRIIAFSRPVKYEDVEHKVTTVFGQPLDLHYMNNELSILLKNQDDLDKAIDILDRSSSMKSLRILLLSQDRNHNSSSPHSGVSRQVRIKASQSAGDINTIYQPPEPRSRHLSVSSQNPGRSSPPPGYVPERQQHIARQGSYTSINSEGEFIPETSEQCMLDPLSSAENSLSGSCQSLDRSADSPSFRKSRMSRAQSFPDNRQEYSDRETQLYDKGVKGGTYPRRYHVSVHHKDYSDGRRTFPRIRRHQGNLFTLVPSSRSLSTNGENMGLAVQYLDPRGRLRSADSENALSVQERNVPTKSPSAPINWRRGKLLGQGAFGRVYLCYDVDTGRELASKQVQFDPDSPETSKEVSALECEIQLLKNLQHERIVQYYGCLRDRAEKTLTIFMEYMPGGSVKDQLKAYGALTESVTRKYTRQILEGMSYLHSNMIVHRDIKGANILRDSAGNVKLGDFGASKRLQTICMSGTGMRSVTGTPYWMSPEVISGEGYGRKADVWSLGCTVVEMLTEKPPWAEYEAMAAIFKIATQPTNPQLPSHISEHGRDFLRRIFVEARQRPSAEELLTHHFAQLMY
The following applies: MEKK3; for remaining activity at 0.5 µM / remaining activity at 0.1 µM: read-out: % Enzyme Activity (relative to DMSO controls); for remaining activity at 0.1 µM: 100 nM.
From the text: as §1

Experiment [9] deals with 363 human kinases (including Aurora A/B/C) (Homo sapiens, UniProt Q9UIK4). To be noted: DAPK2, [ATP] 5 µM; for remaining activity at 0.5 µM / remaining activity at 0.1 µM: read-out: % Enzyme Activity (relative to DMSO controls); for remaining activity at 0.1 µM: 100 nM.
363 human kinases (including Aurora A/B/C) (Homo sapiens, UniProt Q9UIK4), sequence (Q9UIK4 whole entry): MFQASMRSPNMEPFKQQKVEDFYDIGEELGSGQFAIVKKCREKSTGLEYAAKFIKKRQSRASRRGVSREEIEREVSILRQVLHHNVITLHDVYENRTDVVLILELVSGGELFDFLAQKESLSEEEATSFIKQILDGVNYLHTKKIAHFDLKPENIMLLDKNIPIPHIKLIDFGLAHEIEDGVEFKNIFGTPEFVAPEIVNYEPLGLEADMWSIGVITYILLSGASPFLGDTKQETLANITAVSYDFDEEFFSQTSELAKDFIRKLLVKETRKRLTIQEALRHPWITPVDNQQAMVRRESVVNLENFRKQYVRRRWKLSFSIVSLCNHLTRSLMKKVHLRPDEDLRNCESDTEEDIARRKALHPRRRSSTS
From the text: as §1

363 human kinases (including Aurora A/B/C) (Homo sapiens, UniProt P22607), sequence (P22607 23-806): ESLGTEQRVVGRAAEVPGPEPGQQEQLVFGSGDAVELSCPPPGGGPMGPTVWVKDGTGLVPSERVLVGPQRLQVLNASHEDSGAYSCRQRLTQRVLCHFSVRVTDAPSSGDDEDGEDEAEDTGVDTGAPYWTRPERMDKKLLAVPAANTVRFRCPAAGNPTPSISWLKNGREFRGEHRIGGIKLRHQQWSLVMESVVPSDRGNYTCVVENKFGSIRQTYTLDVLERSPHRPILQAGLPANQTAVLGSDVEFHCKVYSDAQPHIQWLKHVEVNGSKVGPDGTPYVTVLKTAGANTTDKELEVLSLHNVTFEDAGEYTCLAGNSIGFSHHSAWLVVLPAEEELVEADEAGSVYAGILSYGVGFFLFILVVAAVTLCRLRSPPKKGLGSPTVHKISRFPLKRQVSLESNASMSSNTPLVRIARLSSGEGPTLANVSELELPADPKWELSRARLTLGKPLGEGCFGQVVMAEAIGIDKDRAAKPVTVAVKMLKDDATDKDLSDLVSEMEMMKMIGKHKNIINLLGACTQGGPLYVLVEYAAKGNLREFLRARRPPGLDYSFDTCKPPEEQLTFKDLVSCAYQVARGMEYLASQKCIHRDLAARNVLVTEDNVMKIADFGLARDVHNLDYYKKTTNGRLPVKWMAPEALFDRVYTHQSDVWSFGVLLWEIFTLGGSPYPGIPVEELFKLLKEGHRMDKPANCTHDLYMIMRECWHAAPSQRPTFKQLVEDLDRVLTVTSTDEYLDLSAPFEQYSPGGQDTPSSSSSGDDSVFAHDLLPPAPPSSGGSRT
363 human kinases (including Aurora A/B/C) (Homo sapiens, UniProt Q07002), sequence (Q07002 whole entry): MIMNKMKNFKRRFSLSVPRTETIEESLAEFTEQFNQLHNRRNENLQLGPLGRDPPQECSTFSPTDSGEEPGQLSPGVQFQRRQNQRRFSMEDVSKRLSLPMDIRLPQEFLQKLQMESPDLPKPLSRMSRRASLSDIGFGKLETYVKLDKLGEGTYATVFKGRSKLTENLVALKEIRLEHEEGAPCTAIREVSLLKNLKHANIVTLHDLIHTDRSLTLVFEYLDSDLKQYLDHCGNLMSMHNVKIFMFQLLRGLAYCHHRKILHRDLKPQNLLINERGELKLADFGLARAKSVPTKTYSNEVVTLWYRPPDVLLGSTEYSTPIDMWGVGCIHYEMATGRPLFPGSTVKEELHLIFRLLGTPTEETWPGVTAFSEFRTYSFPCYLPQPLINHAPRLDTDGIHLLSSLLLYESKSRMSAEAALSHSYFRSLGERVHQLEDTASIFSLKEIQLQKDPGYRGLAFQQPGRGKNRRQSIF
363 human kinases (including Aurora A/B/C) (Homo sapiens, UniProt P68400), sequence (P68400 whole entry): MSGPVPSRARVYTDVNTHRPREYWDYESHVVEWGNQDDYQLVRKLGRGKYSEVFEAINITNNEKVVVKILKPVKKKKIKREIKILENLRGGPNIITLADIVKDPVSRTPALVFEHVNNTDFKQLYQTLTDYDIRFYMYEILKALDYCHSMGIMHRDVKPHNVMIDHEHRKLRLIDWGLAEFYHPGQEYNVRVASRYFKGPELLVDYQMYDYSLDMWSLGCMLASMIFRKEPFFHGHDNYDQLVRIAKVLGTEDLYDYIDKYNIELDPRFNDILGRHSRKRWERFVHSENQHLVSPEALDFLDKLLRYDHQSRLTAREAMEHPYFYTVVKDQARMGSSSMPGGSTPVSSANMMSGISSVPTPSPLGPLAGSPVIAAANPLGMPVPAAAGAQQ
363 human kinases (including Aurora A/B/C) (Homo sapiens, UniProt P37023), sequence (P37023 22-503): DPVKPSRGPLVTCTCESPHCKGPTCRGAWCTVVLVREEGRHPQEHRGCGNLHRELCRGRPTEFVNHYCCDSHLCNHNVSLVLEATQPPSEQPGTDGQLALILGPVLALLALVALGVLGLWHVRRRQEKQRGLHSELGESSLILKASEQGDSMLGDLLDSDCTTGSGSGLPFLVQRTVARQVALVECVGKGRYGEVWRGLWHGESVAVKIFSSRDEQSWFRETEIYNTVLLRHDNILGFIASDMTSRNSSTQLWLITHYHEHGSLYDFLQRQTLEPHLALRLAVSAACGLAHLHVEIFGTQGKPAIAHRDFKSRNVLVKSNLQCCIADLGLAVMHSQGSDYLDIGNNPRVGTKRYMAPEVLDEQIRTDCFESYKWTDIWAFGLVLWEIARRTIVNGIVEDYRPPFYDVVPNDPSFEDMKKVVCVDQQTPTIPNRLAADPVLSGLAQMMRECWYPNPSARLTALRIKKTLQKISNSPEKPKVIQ
363 human kinases (including Aurora A/B/C) (Homo sapiens, UniProt P09619), sequence (P09619 33-1106): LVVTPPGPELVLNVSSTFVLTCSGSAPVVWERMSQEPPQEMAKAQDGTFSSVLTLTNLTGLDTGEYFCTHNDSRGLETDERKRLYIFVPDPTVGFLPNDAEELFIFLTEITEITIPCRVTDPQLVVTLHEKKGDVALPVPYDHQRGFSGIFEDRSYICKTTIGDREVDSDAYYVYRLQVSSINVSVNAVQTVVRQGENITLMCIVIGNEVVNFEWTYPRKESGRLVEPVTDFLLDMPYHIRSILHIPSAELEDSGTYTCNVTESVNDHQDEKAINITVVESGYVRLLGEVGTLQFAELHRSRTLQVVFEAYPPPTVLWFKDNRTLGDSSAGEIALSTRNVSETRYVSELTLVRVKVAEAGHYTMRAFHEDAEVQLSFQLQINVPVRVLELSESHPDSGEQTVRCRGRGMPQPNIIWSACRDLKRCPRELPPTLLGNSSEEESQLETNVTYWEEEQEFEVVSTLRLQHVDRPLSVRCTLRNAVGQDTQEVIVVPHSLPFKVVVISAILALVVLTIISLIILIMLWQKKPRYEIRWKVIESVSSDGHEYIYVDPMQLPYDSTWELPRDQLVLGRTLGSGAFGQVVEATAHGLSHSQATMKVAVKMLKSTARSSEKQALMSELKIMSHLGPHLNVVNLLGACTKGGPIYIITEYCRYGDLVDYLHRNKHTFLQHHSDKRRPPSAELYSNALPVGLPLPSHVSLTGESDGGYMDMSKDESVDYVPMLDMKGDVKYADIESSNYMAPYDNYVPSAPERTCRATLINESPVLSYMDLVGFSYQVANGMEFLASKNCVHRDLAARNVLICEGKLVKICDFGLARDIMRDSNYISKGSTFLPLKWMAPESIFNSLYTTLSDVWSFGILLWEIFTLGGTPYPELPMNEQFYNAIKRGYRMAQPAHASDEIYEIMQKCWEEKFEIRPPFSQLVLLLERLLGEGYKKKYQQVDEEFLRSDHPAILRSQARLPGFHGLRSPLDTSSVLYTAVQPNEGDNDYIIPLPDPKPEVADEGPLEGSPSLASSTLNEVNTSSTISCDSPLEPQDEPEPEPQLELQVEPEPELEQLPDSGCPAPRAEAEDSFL

As for `O=C(c1cccc(Cl)c1F)N1CCN(Cc2cccc(Nc3nccs3)n2)CC1` [MK-8745], the “% Enzyme Activity (relative to DMSO controls)” value in experiment [1] (500 nM) was determined as 75.68%; in experiment [2] (500 nM) it was 88.70%; in experiment [3] (500 nM), 95.75%; in [4] (500 nM), 71.54%; in [6] (500 nM), 106.28%; in experiment [7] (500 nM), 98.27%. Moreover, the “% Enzyme Activity (relative to DMSO controls)” value in experiment [8] (500 nM) amounted to 111.88%; in experiment [9] (500 nM), 102.56%. The remaining activity at 0.5 µM in [1] (500 nM) is 79%; in experiment [2] (500 nM), 89.7%; in [3] (500 nM), 95.9%; in experiment [4] (500 nM), 75.1%; in [5] it was 91.9%; in experiment [6] (500 nM), 107%. Besides, the values for the remaining activity at 0.5 µM in experiment [7] (500 nM), in experiment [8] (500 nM) and in [9] (500 nM) were 99.7%, 114% and 105%, respectively.
On to `CCn1cc(-c2ccnc3[nH]c(-c4cccc(CN(C)C)c4)cc23)c(-c2ccc(NC(=O)N(C)C)cc2)n1` [GSK1070916], for which the remaining activity at 0.1 µM came out at 76.8% in [1]; 90.4% in experiment [2]; 63.8% in experiment [3]; 98.2% in experiment [4]; 99.6% in experiment [5]; 107% in [6]. Further, the remaining activity at 0.1 µM in experiment [7] amounted to 105%; in experiment [8] it was 97.2%; in experiment [9] it was 111%.
For the molecule `O=C(O)[C@]1(Cc2cccc(Nc3nccs3)n2)CC[C@@H](Oc2cccc(Cl)c2F)CC1` [MK-5108], the remaining activity at 0.1 µM in experiment [1] is 97.1%; in [2] it was 86.7%; in [3] it was 64.9%; in experiment [4], 51.3%; in experiment [5] it was 104%; in experiment [6], 85.9%. Also, the remaining activity at 0.1 µM came out at 106% in experiment [7], 96.3% in experiment [8] and 103% in experiment [9]. The remaining activity at 0.5 µM in experiment [1] (500 nM) stood at 87.9%; in experiment [2] (500 nM), 67.2%; in [3] (500 nM) it was 31.5%; in experiment [4] (500 nM) it was 36.5%; in [5] it was 105%; in [6] (500 nM), 108%. The remaining activity at 0.5 µM in experiment [7] (500 nM) was 105%; in experiment [8] (500 nM), 117%; in experiment [9] (500 nM) it was 111%.
